Patent US9708314B2, “Heterocyclic amide compound” (NISSAN CHEMICAL INDUSTRIES, LTD., priority 2013, dated 2017)

How the values were obtained:
Type in all cases: in vivo
Cyperus difformis = assay: Test Example 3: herbicidal effect by application to foliage (Wagner pot, water depth 0.1-0.5 cm); details: Nineteenth Table; application to foliage; application herbicide amount 320 g/ha
Outline: (§1)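 Grading uses six bands of herbicidal ratio, from 0 (≤5%, almost no effect) to 5 (≥90%, almost completely withered). Treatment was a stem-and-leaf spray of diluted emulsion at a fixed g/ha on 14-day-old plants; evaluation after three weeks.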

[1] = tested on: Echinochloa crus-galli var. crus-galli; assay: as above; details: Nineteenth Table; application to foliage; application herbicide amount 320 g/ha
Outline: as §1

Leptochloa chinensis = assay: as above; details: Nineteenth Table; application to foliage; application herbicide amount 320 g/ha
Outline: as §1

Abutilon theophrasti = assay: Test Example 4: herbicidal effect by application to foliage (diluvial soil, plastic box); details: for M: herbicidal effect on Abutilon theophrasti: application to foliage, application herbicide amount 320 g/ha; for M (Abutilon theophrasti) herbicidal effect grade: Application herbicide amount 320 g/ha, foliage application
Outline: (§2)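 Read-out is a 0–5 visual grade of herbicidal ratio (5: ≥90%, almost withered; 0: ≤5%) taken three weeks after treatment. Compound was applied as a diluted emulsion to stem and leaf parts of 14-day greenhouse-grown plants (25° C. to 30° C.) at rates expressed as g/ha.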

Alopecurus myosuroides = assay: as above; details: for J: herbicidal effect on Alopecurus myosuroides: application to foliage, application herbicide amount 320 g/ha; for J (Alopecurus myosuroides) herbicidal effect grade: Application herbicide amount 320 g/ha, foliage application
Outline: as §2

Amaranthus retroflexus = assay: as above; details: for N: herbicidal effect on Amaranthus retroflexus: application to foliage, application herbicide amount 320 g/ha; for N (Amaranthus retroflexus) herbicidal effect grade: Application herbicide amount 320 g/ha, foliage application
Outline: as §2

Apera spica-venti. = assay: as above; details: for L: herbicidal effect on Apera spica-venti.: application to foliage, application herbicide amount 320 g/ha; for L (Apera spica-venti.) herbicidal effect grade: Application herbicide amount 320 g/ha, foliage application
Outline: as §2

Chenopodium album = assay: as above; details: for O: herbicidal effect on Chenopodium album: application to foliage, application herbicide amount 320 g/ha; for O (Chenopodium album) herbicidal effect grade: Application herbicide amount 320 g/ha, foliage application
Outline: as §2

Digitaria ciliaris = assay: as above; details: for F: herbicidal effect on Digitaria ciliaris: application to foliage, application herbicide amount 320 g/ha; for F (Digitaria ciliaris) herbicidal effect grade: Application herbicide amount 320 g/ha, foliage application
Outline: as §2

Setaria viridis = assay: as above; details: for G: herbicidal effect on Setaria viridis: application to foliage, application herbicide amount 320 g/ha; for G (Setaria viridis) herbicidal effect grade: Application herbicide amount 320 g/ha, foliage application
Outline: as §2

Stellaria media = assay: as above; details: for P: herbicidal effect on Stellaria media: application to foliage, application herbicide amount 320 g/ha; for P (Stellaria media) herbicidal effect grade: Application herbicide amount 320 g/ha, foliage application
Outline: as §2

Veronica persica = assay: as above; details: for R: herbicidal effect on Veronica persica: application to foliage, application herbicide amount 320 g/ha; for R (Veronica persica) herbicidal effect grade: Application herbicide amount 320 g/ha, foliage application
Outline: as §2

| Compound | E (herbicidal effect grade) (Cyperus difformis) | H (herbicidal effect grade) [1] | D (herbicidal effect grade) (Leptochloa chinensis) | M: herbicidal effect on Abutilon theophrasti (Abutilon theophrasti) | J: herbicidal effect on Alopecurus myosuroides (Alopecurus myosuroides) | N: herbicidal effect on Amaranthus retroflexus (Amaranthus retroflexus) | L: herbicidal effect on Apera spica-venti. (Apera spica-venti.) | O: herbicidal effect on Chenopodium album (Chenopodium album) | F: herbicidal effect on Digitaria ciliaris (Digitaria ciliaris) | G: herbicidal effect on Setaria viridis (Setaria viridis) | P: herbicidal effect on Stellaria media (Stellaria media) | R: herbicidal effect on Veronica persica (Veronica persica) | M (Abutilon theophrasti) herbicidal effect grade (Abutilon theophrasti) | J (Alopecurus myosuroides) herbicidal effect grade (Alopecurus myosuroides) | N (Amaranthus retroflexus) herbicidal effect grade (Amaranthus retroflexus) | L (Apera spica-venti.) herbicidal effect grade (Apera spica-venti.) | O (Chenopodium album) herbicidal effect grade (Chenopodium album) | F (Digitaria ciliaris) herbicidal effect grade (Digitaria ciliaris) | G (Setaria viridis) herbicidal effect grade (Setaria viridis) | P (Stellaria media) herbicidal effect grade (Stellaria media) | other results |
| --- | --- | --- | --- | --- | --- | --- | --- | --- | --- | --- | --- | --- | --- | --- | --- | --- | --- | --- | --- | --- | --- |
| CCC(C)c1nnc2c(C(=O)Nc3nnnn3C)ccc(C(F)(F)F)n12 (stereo not drawn) [2-016] | 5 (Herbicidal ratio of 90% or more (almost completely withered)) | 5 (Herbicidal ratio of 90% or more (almost completely withered)) | 5 (Herbicidal ratio of 90% or more (almost completely withered)) | 5 (Herbicidal ratio of 90% or more (almost completely withered)) | 4 (Herbicidal ratio of 70% or more and less than 90%) | 5 (Herbicidal ratio of 90% or more (almost completely withered)) | 4 (Herbicidal ratio of 70% or more and less than 90%) | 5 (Herbicidal ratio of 90% or more (almost completely withered)) | 5 (Herbicidal ratio of 90% or more (almost completely withered)) | 5 (Herbicidal ratio of 90% or more (almost completely withered)) | 5 (Herbicidal ratio of 90% or more (almost completely withered)) | 5 (Herbicidal ratio of 90% or more (almost completely withered)) | – | – | – | – | – | – | – | – | – |
| Cc1nnc(NC(=O)c2ccc(C(F)(F)F)n3c(N4CCCC4)nnc23)o1 [1-136] | 0 (Herbicidal ratio of 5% or less (almost no effect)) | 4 (Herbicidal ratio of 70% or more and less than 90%) | 4 (Herbicidal ratio of 70% or more and less than 90%) | – | – | – | – | – | – | – | – | – | 3 (Herbicidal ratio of 40% or more and less than 70%) | 0 (Herbicidal ratio of 5% or less (almost no effect)) | 2 (Herbicidal ratio of 20% or more and less than 40%) | 1 (Herbicidal ratio of 5% or more and less than 20%) | 5 (Herbicidal ratio of 90% or more (almost completely withered)) | 4 (Herbicidal ratio of 70% or more and less than 90%) | 2 (Herbicidal ratio of 20% or more and less than 40%) | 4 (Herbicidal ratio of 70% or more and less than 90%) | R (Veronica persica) herbicidal effect grade (Veronica persica): 3 (Herbicidal ratio of 40% or more and less than 70%) |
| CCOCc1nnc2c(C(=O)Nc3nnnn3C)ccc(C(F)(F)F)n12 [2-026] | 5 (Herbicidal ratio of 90% or more (almost completely withered)) | 5 (Herbicidal ratio of 90% or more (almost completely withered)) | 5 (Herbicidal ratio of 90% or more (almost completely withered)) | 5 (Herbicidal ratio of 90% or more (almost completely withered)) | 4 (Herbicidal ratio of 70% or more and less than 90%) | 5 (Herbicidal ratio of 90% or more (almost completely withered)) | 3 (Herbicidal ratio of 40% or more and less than 70%) | 5 (Herbicidal ratio of 90% or more (almost completely withered)) | 5 (Herbicidal ratio of 90% or more (almost completely withered)) | 4 (Herbicidal ratio of 70% or more and less than 90%) | 5 (Herbicidal ratio of 90% or more (almost completely withered)) | 5 (Herbicidal ratio of 90% or more (almost completely withered)) | – | – | – | – | – | – | – | – | – |
| COc1ccc(CSc2nnc3c(C(=O)Nc4nnc(C)o4)ccc(C(F)(F)F)n23)cc1 [1-114] | 2 (Herbicidal ratio of 20% or more and less than 40%) | 4 (Herbicidal ratio of 70% or more and less than 90%) | 4 (Herbicidal ratio of 70% or more and less than 90%) | – | – | – | – | – | – | – | – | – | 2 (Herbicidal ratio of 20% or more and less than 40%) | 0 (Herbicidal ratio of 5% or less (almost no effect)) | 3 (Herbicidal ratio of 40% or more and less than 70%) | 0 (Herbicidal ratio of 5% or less (almost no effect)) | 5 (Herbicidal ratio of 90% or more (almost completely withered)) | 1 (Herbicidal ratio of 5% or more and less than 20%) | 0 (Herbicidal ratio of 5% or less (almost no effect)) | 4 (Herbicidal ratio of 70% or more and less than 90%) | R (Veronica persica) herbicidal effect grade (Veronica persica): 3 (Herbicidal ratio of 40% or more and less than 70%) |
| COCCN(C)c1nnc2c(C(=O)Nc3nnc(C)o3)ccc(C(F)(F)F)n12 [1-129] | 4 (Herbicidal ratio of 70% or more and less than 90%) | 5 (Herbicidal ratio of 90% or more (almost completely withered)) | 5 (Herbicidal ratio of 90% or more (almost completely withered)) | – | – | – | – | – | – | – | – | – | 3 (Herbicidal ratio of 40% or more and less than 70%) | 1 (Herbicidal ratio of 5% or more and less than 20%) | 4 (Herbicidal ratio of 70% or more and less than 90%) | 1 (Herbicidal ratio of 5% or more and less than 20%) | 5 (Herbicidal ratio of 90% or more (almost completely withered)) | 4 (Herbicidal ratio of 70% or more and less than 90%) | 4 (Herbicidal ratio of 70% or more and less than 90%) | 5 (Herbicidal ratio of 90% or more (almost completely withered)) | – |
| COc1ccc(N(C)c2nnc3c(C(=O)Nc4nnc(C)o4)ccc(C(F)(F)F)n23)cc1 [1-165] | – | 5 (Herbicidal ratio of 90% or more (almost completely withered)) | 4 (Herbicidal ratio of 70% or more and less than 90%) | 3 (Herbicidal ratio of 40% or more and less than 70%) | 0 (Herbicidal ratio of 5% or less (almost no effect)) | 4 (Herbicidal ratio of 70% or more and less than 90%) | 2 (Herbicidal ratio of 20% or more and less than 40%) | 5 (Herbicidal ratio of 90% or more (almost completely withered)) | 3 (Herbicidal ratio of 40% or more and less than 70%) | 1 (Herbicidal ratio of 5% or more and less than 20%) | 4 (Herbicidal ratio of 70% or more and less than 90%) | 4 (Herbicidal ratio of 70% or more and less than 90%) | – | – | – | – | – | – | – | – | – |
| COc1ccc(CN(C)c2nnc3c(C(=O)Nc4nnc(C)o4)ccc(C(F)(F)F)n23)cc1 [1-167] | – | 1 (Herbicidal ratio of 5% or more and less than 20%) | 2 (Herbicidal ratio of 20% or more and less than 40%) | 2 (Herbicidal ratio of 20% or more and less than 40%) | 0 (Herbicidal ratio of 5% or less (almost no effect)) | 2 (Herbicidal ratio of 20% or more and less than 40%) | 1 (Herbicidal ratio of 5% or more and less than 20%) | 5 (Herbicidal ratio of 90% or more (almost completely withered)) | 0 (Herbicidal ratio of 5% or less (almost no effect)) | 0 (Herbicidal ratio of 5% or less (almost no effect)) | 5 (Herbicidal ratio of 90% or more (almost completely withered)) | 4 (Herbicidal ratio of 70% or more and less than 90%) | – | – | – | – | – | – | – | – | – |
